We go through five molecules from patent US9611223B2, “3-aryl-5-substituted-isoquinolin-1-one compounds and their therapeutic use” (INSTITUTE OF CANCER RESEARCH: ROYAL CANCER HOSPITAL (THE), priority 2013, dated 2017).

One test has as its target T1, TNKS1 (Homo sapiens, UniProt O95271, M1266I).
T1 construct: expresses the active PARP domain of TNKS1 as a polyhistidine tagged protein; made in house; host or cells: E. coli Rosetta2(DE3)
Kind of test: TNKS1/PARP Biochemical Assay. The method, then: TNKS1/PARP Biochemical Assay
Tankyrase activity was assayed using a 96-well format HT Universal Chemiluminescent PARP Assay Kit (Trevigen, Inc, cat. no. 4676-096-K) according to the manufacturer's instructions. In short, tankyrase/PARP activity is quantified by the incorporation of biotinylated nicotinamide adenine dinucleotide (biotin-NAD^+) onto the immobilised pseudo substrate, Histone. The extent of poly(Biotin-ADP)ribosylation (PARylation) in the presence of increasing dose of inhibitor is then quantified by binding of streptavidin conjugated horse radish peroxidase (strep-HRP) followed by chemiluminescent detection.
Prior to assay initiation, inhibitor stocks were prepared in aqueous DMSO (10% (v/v)) from 5 millimolar (mM) stock in 100% DMSO (Sigma Aldrich, cat. no. 265855) as 10× concentrations. For the primary assay (i.e., single dose at 1 micromolar (μM) final concentration) this corresponded to 10 μM in 10% DMSO. For IC50 determination, this corresponded to 100 μM, 30 μM, 10 μM, 3.0 μM, 1.0 μM, 0.30 μM, 0.10 μM and 0 μM in 10% DMSO for final concentrations of 10 μM, 3.0 μM, 1.0 μM, 0.30 μM, 0.10 μM, 0.030 μM, 0.010 μM, and 0 μM with 1% (v/v) final DMSO. The assay was initiated by the addition of 10× inhibitor (5 microliters (μL)) or 10% aqueous DMSO (5 μL) to triplicate wells. Twenty microliters of diluted TNKS1 protein (200 nanomolar (nM) final conc.) in PARP buffer (Trevigen, Inc, cat. no. 4671-096-02) was added to each histone coated well, which was previously hydrated with PARP buffer. Triplicate wells with 1% DMSO/buffer alone (no enzyme) were also added as a measure of assay ‘noise’. Positive control for PARP inhibition included the addition of 4-amino-1,8-naphthalimide (Sigma Aldrich, cat. no A0966) in corresponding doses.
The mixture was incubated for 10 minutes at room temperature and the PARylation reaction initiated by the addition of PARP cocktail (25 μL, Trevigen, Inc) containing biotin-NAD^+ (Trevigen, Inc, cat. no. 4670-500-01), activated DNA (Trevigen, Inc, cat. no. 4671-096-06) and PARP buffer. The reaction was incubated for 1.5 hours (for TNKS1) or 1 hour (for PARP1) at room temperature. The reaction mixture was then removed by aspiration and the wells washed (3×200 μL) with phosphate buffered saline containing Triton X-100 (0.1% (v/v), Sigma Aldrich cat. no. T8787). The wells were then washed (3×200 μL) with phosphate buffered saline and then incubated with strep-HRP (50 μL, Trevigen, Inc, cat. no. 4800-30-06) in strep-diluent (1:500 dilution, Trevigen Inc, cat. no. 4671-096-04) for 1 hour at room temperature. The Strep-HRP mixture was then aspirated and the wells washed (3×200 μL) with phosphate buffered saline containing Triton X-100 (0.1% (v/v)) followed by phosphate buffered saline (3×200 μL) and then incubated with PeroxyGlow™ reagent (100 μL, Trevigen, Inc, cat. nos. 4675-096-01, 4675-096-02, room temperature, mixed 1:1).
The amount of light emitted as a result of the peroxidase-chemiluminescent reagent reaction was in proportion to the extent of poly(Biotin-ADP)ribosylation and was immediately measured with a Victor^2 plate reader (Perkin Elmer, luminescence detection assay, luminescent units described as ‘Counts Per Second’ (CPS)). The data were normalised to the DMSO control after subtraction of ‘noise’ and was expressed as % PARP activity as a function of inhibitor dose. Inhibition was expressed as 100%−(% PARP activity). Dose response curves used to determine IC50 values were Log transformed and analysed by non-linear regression analysis (variable slope) using Prism (GraphPad Software, Inc) and were presented as IC50 with 95% confidence interval to determine relative potency.
Tankyrase1 (pNIC-Bsa4-TNKS1^PARP) expression construct was obtained from the Structural Genomics Consortium (SGC) and expresses the active PARP domain of TNKS1 as a polyhistidine tagged protein. […]

In the next test the test system is COLO320DM cells. Briefly: Tumour Cell Inhibition Assay (COLO320DM cells). It counts as cell-based. The conditions noted are these: Homo sapiens, COLO 320DM, 120 h, five day exposure, read-out: cell inhibitory SF50 (COLO320DM). As for the experimental part: (§1) Tumour Cell Inhibition in Colorectal Tumour Cells
(§2) In order to determine the efficacy of acute dosing of putative TNKS inhibitors, five day exposure cell viability assays were carried out. This included the sparse seeding of cells in a 96-well plate followed by continuous dosing of cells over a five day period.
(§3) Appropriate cell lines (HT55, COLO320DM and SW620) were seeded at 500 cells/well in a 96-well plate in MEM (HT55), RPMI (COLO320DM) or DMEM (SW620) supplemented with FBS. After overnight incubation, cells were treated with the appropriate putative TNKS inhibitor in 6 or 10 concentrations ranging from 0 μM to 10 μM at 0.2% final DMSO concentration in appropriate media supplemented with 10% or 0.5% FBS. Dosages were carried out in triplicate. Termination of the assay and measurement of cell viability was achieved by the use of Cell Titre Glo reagent and luminescence measurement on an appropriate plate reader.
(§4) Dose response curves used to determine SF50 values were Log transformed and analysed by non-linear regression analysis (variable slope) using Prism (GraphPad Software, Inc).

In the next test the test system is HT55 cells. Kind of test: Tumour Cell Inhibition Assay (HT55 cells). The class given is cell-based. The conditions noted are these: Homo sapiens, HT55, 120 h, read-out: cell inhibitory SF50 (HT55). As for the experimental part:
as §1, §2, §3, §4

The next test concerns Wnt signalling. Kind of test: Wnt-Luciferase Reporter Assay. The class given is cell-based. The following applies: DLD1-Wnt-Luc cells, 20-22 hours. As for the experimental part:
Wnt-Luciferase Reporter Assay
A Wnt dependent cell line (i.e., DLD1 colorectal adenocarcinoma cell line) was transduced with replication incompetent VSV-g pseudotyped lentiviral particles expressing the firefly luciferase gene under the control of minimal cytomegalovirus (mCMV) promoter and tandem repeats of the TCF/LEF transcriptional response element.
DLD1-Wnt-Luc cells were seeded (5000 cells/well) in a 96-well plate (Greiner Bio-One, cat. no. 655098) in Dubelco's Modified Eagle Medium (DMEM, SFBCO/Invitrogen, cat no. 41965-039) supplemented with Fetal Bovine Serum (FBS, 10%, SFBCO/Invitrogen, cat no. 10108-165). After overnight incubation, the media was replaced with OptiMEM (SFBCO/Invitrogen, cat no. 11058-021) supplemented with FBS (0.5%) and non-essential amino acids (1%, SFBCO/Invitrogen, cat no. 11140-035) and the appropriate putative TNKS inhibitor at a final concentration of 10 μM, 3 μM, 1 μM, 0.30 μM, 0.10 μM, 0.030 μM, 0.010 μM and 0 μM with 1% (v/v) final DMSO in double-triplicate wells. Positive control includes the use of XAV-939 (Maybridge, FisherScientific, 3,5,7,8-tetrahydro-2-[4-(trifluoromethyl)phenyl]-4H-thiopyrano[4,3-d]pyrimidin-4-one, cat. no. RF03920, see: Huang et al., Nature, 2009, Vol. 461, pp. 614-620). Cells were incubated for 20-22 hours before assaying for luciferase (first set of triplicates: Wnt activation) and viability (second set of triplicates: cell survival for data normalisation vs Wnt-activation) using ONE-Glo (Promega, cat. no. E6110) and CellTiter-Glo (Promega, cat. no. G7570) reagents consecutively. The assay was measured using a Victor^2 plate reader. The data were normalised to the DMSO control and were expressed as % Wnt activity as a function of inhibitor dose. Dose response curves used to determine IC50 values were Log transformed and analysed by non-linear regression analysis (variable slope) using Prism (GraphPad Software, Inc).
For orientation: In a reporter assay the amount or activity of a reporter protein is the signal.

The mark [1] stands for this setting: Tumour Cell Inhibition Assay, five day exposure.

Structures are written as SMILES. Where two headings read alike, the source gives them in different places. Where only a bound is given, the exact number is not on record here.

T1 sequence (O95271 1112-1317 M1266I): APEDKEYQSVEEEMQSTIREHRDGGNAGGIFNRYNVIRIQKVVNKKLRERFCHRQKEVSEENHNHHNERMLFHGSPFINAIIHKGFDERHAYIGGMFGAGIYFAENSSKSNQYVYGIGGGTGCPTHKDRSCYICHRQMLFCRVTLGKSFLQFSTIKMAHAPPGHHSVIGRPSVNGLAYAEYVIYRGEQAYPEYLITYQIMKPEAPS

Take `N#Cc1cccc2c(=O)[nH]c(-c3ccc(Cn4ccnc4CO)cc3)cc12` [IQ-015, 3-[4-(2-Hydroxymethyl-imidazol-1-ylmethyl)-phenyl]-1-oxo-1,2-dihydro-isoquinoline-5-carbonitrile]: the IC50 at TNKS1 is < 0.05 µM; with COLO320DM cells it was < 5 µM; with HT55 cells (setting [1]), < 5 µM.
`N#Cc1cccc2c(=O)[nH]c(-c3ccc(Cn4ccnc4N)cc3)cc12` [IQ-018]: the IC50 was < 0.05 µM against TNKS1, < 5 µM with COLO320DM cells, < 5 µM with HT55 cells (setting [1]) and < 0.3 µM with Wnt signalling.
In the case of `Cc1nnc(C2CCN(Cc3ccc(-c4cc5c(C#N)cccc5c(=O)[nH]4)cc3)CC2)o1` [IQ-041], the IC50 on TNKS1 was < 0.05 µM; with HT55 cells, < 5 µM; in the test on Wnt signalling, < 0.3 µM.
For `CN1CCCN(Cc2ccc(-c3cc4c(C#N)cccc4c(=O)[nH]3)cc2)CC1` [IQ-048], the IC50 against TNKS1 was < 0.05 µM; in the test with COLO320DM cells it was < 5 µM; in the test on HT55 cells (setting [1]), < 5 µM.
For the molecule `N#Cc1cccc2c(=O)[nH]c(-c3ccc(N4CCNCC4)cc3)cc12` [IQ-054], the results for the IC50 at TNKS1 and in the test on HT55 cells were < 0.05 µM and < 5 µM, respectively.
